Measured values reported in patent US20200352950A1, “Novel method of treating dystonia” (KOREA ADVANCED INSTITUTE OF SCIENCE AND TECHNOLOGY, priority 2017, published 2020).
Entries after “also recorded” stand apart in the source; their conditions may differ.

How the values were obtained:
5-HT2A receptor = 5-HT2A receptor (Homo sapiens, UniProt P28223); conditions: cited from earlier work
[1] = system: CACNA1Atot/tot mice (tottering mice); assay: Stress-induced dystonia in tottering mice in open field box (attack event number, dystonia score); format: in vivo; conditions: for degree of relaxation of dystonia (number of dystonia events, dystonia score): FIGS. 3B, 3C, i.p., MDL100907 1 or 2 mg/kg, pimavanserin 1.5 mg/kg, ritanserin 2 mg/kg, glemanserin 2 mg/kg, nelotanserin 1 mg/kg, compared to the control group; for dystonia symptoms, dose-dependent effect: FIG. 3A
[2] = system: CACNA1Atot/tot mice (tottering mice); assay: EMG cross correlation between tibialis anterior and gastrocnemius muscles of tottering mice; format: in vivo; conditions: FIG. 1G; stressed environment; compared to control group
Text: Electrodes (A-M system, USA) were surgically inserted into the gastrocnemius (GS) and tibialis anterior (TA) muscle for EMG recording, respectively. The electrodes were made using multiple strands of stainless-steel wires attached to each other and coated with Teflon. After shaving the hair of the right hind leg and behind the neck, a small incision was formed in the skin of the dorsal neck area. Four sets of recording electrodes were connected from the neck incision to the muscles under the skin. The EMG wires were wired under the skin and connected to a connector fixed to the skull. The low impedance of the exposed end of the wires allows the capture of electrical signals that have passed through relatively long distances (Pearson et al., J. Neurosci. Methods, 148 (1): 36-42, 2005). The EMG signals from the electrodes were sampled at 10 kHz and digitized with MiniDigi 1A (Axon Instrument, USA). Raw traces were analyzed using Clampfit 9.2 (Axon Instrument, USA). The cross correlation was calculated by using the standard of NeuroExplorer (Ver. 4, Nex Technologies, USA). […] The cross correlation indicates the degree of EMG overlap for a certain period in two muscles (TA and GS), and is a measure for judging whether the dystonia symptoms occur simultaneously in two muscles. […] That is, the greater the cross correlation value (Cross Corr.), which is the Y-axis value when the signal between each other is 0 ms (when contracted at the same time), the more severe the dystonia symptoms that the two muscles contract at the same time. The unit of the Y axis, AU, is a relative cross correlation value when the control is set to 1 which is an arbitrary unit.

[3] = system: calcium ion concentration in the cerebellum; assay: Real-time GCaMP6 fluorescence measurement of calcium ion concentration in the cerebellum of tottering mice; format: in vivo; conditions: FIG. 4E; stress environment
Experimental: In order to analyze the correlation between the degree of dystonia symptoms and the concentration of calcium ions in neurons, optogenetic model animals were prepared. Particularly, for a photometric system with a polarization-maintaining single-mode optical fiber, AAV2/9-CAG-FLEX-GCaMP6m (zadmehr et al., Cell, 164: 617-631, 2016) and AAV2/9-CMV-Cre (Gompf et al., Front. Behav. Neurosci. 9: 152, 2015) viral vectors were injected unilaterally into 0.25 μl each of the fastigial nucleus of the CACNA1A^tot/tot mouse through stereotaxic surgery. The virus injection was carried out 4 weeks before the experiment. […] For the fluorescence measurement, a TCSPC-based light measurement system (Becker & Hickel, Germany) was used.
The change in calcium signaling in the cerebellum is possible by transduction of a gene encoding the calcium sensor protein GCaMP6 into the cerebellum of the dystonia model mouse, and then measuring the intensity of fluorescence of the GCaMP6 protein bound to calcium ions. […] The present inventors performed real-time fluorescence analysis to analyze the correlation between dystonia symptoms and calcium ion concentration in nerve tissues in the topical transduction tottering mice prepared in Example 2. […] After the pulse laser irradiation, 509 nm wavelength fluorescence was measured using a TCSPC-based optical measurement system (Becker & Hickl, Germany). […]

[4] = system: CACNA1Atot/tot mice (tottering mice); assay: Stress-induced dystonia in tottering mice in open field box (attack event number, dystonia score); format: in vivo; conditions: FIG. 1F; i.p. 30 min before test; Way100135 10 mg/kg, MDL100907 1 mg/kg, ondansetron 1 mg/kg; open field box 30 min
Experimental: The 7-8 weeks old CACNA1Atot/tot mice (Fletcher, Cell, 87 (4): 607-617, 1996, The Jackson Laboratory, Stock No: 000544) were selected kept and dealt complied with the regulation (protocol number KA2015-05) of Institutional Animal Care and Use Committee of the Korea Advanced Institute of Science and Technology (KAIST). The mice remained freely accessible to water and feed, and the light-dark cycle was 12/12 hours. Behavioral tests were performed 4 weeks after the viral transduction. […]
The drugs were dissolved in physiological saline and administrated […] to the tottering animal prepared by the Examples 2 and kept in the controlled environment of 12/12 hour light-dark cycle. […] The behavior test was performed 30 minutes after drug administration, and the experimental animals were acclimated in the home for 30 minutes and moved to an open field box, they were exposed to a stressed environment by leaving them in the open field box for 30 min, and the symptoms of dystonia were measured. The symptoms of dystonia and its severity were calculated using a 5-point scale dystonia score as follows: 0=normal behavior, 1=abnormal motor behavior, no myotonic posture, 2=minor dyskinesia, showing dystonia-like psture when disturbed, 3=moderate motor disability, frequent spontaneous myotonic posture, 4=severe motor disability, and persistent myotonic posture.

Sequence of 5-HT2A receptor (P28223 whole entry): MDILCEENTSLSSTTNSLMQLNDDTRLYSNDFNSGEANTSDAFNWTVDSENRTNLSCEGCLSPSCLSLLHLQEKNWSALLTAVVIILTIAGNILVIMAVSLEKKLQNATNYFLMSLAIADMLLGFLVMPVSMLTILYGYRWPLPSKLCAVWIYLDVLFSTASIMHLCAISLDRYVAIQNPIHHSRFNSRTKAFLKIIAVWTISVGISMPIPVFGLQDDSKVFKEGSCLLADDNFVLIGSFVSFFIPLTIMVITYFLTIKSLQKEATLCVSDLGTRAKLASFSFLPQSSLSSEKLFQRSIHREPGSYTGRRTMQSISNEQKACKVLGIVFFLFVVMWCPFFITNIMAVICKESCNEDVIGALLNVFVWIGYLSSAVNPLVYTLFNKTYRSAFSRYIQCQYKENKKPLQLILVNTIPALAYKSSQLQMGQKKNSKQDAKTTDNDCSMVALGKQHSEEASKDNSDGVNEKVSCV

SMILES | Ki (5-HT2A receptor; 5-HT2A receptor) [nM] | degree of relaxation of dystonia (number of dystonia events, dystonia score) [1] | EMG cross correlation (TA and GS muscles) [2] | further results
COc1ccc(CC(=O)N(Cc2ccc(C)cc2)C2CCN(C)CC2)cc1 [AC-90179] | 2.1 ± 0.2 | – | – | –
OC(c1ccccc1)C1CCN(CCc2ccccc2)CC1 (stereo not shown) [Glemanserin] | – | showed no significant effect | – | IC50 (5-HT2A receptor): 6.5 ± 2 nM
OCCOCCN1CCN(C(c2ccccc2)c2ccc(Cl)cc2)CC1 (stereo not shown) [Hydroxyzine] | – | – | – | IC50 (5-HT2A receptor): 170 nM
COc1ccc(NC(=O)Nc2ccc(F)cc2F)cc1-c1c(Br)cnn1C [Nelotanserin] | 0.4 ± 0.07 | showed no dystonia paralysis | – | –
CC(CCN1CCN(c2ccc(F)cc2)CC1)NC(=O)c1cccnc1 (stereo not shown) [Niaprazine] | 75 | – | – | pKi (5-HT2A receptor; 5-HT2A receptor): 7.61 ± 0.18
CC(C)COc1ccc(CNC(=O)N(Cc2ccc(F)cc2)C2CCN(C)CC2)cc1 [Pimavanserin] | – | showed no dystonia paralysis; also recorded: reduced symptoms of dystonia compared to Glemanserin | – | –
Cc1nc2sccn2c(=O)c1CCN1CCC(=C(c2ccc(F)cc2)c2ccc(F)cc2)CC1 [Ritanserin] | – | showed no dystonia paralysis | – | –
COc1cccc([C@H](O)C2CCN(CCc3ccc(F)cc3)CC2)c1OC [Volinanserin] | – | showed no dystonia paralysis; also recorded: reduced symptoms of dystonia compared to Glemanserin | the correlation disappeared | dystonia symptoms, dose-dependent effect ([1]; 0.1 mg/kg): dystonia symptoms were significantly suppressed; dystonia symptoms, dose-dependent effect ([1]; 2 mg/kg rather than 1 mg/kg): symptoms were slightly alleviated; increase in GCaMP6 fluorescence signal (ΔF/F) in cerebellum after moving to open field box [3]: reduced to the level when staying at the home
COc1ccccc1N1CCN(CC(C(=O)NC(C)(C)C)c2ccccc2)CC1 (stereo not shown) [Way100135] | – | – | there is no difference | symptoms of dystonia (attack event number and muscle dysfunction index) [4]: did not reduce symptoms of dystonia at all
Cc1nccn1CC1CCc2c(c3ccccc3n2C)C1=O (stereo not shown) [ondansetron] | – | – | there is no difference | symptoms of dystonia (attack event number and muscle dysfunction index) [4]: did not reduce symptoms of dystonia at all
